Laboratory results taken from patent US20120193574A1, “Method Of Controlling Crystallization” (University of Durham, priority 2009, published 2012).
“Also recorded” adds a separate entry of the source. One block for each molecule: values may come before it.

Legend:
[1] = Crystallisation in microemulsions under confinement; polymorph of the crystals by FTIR, TEM electron diffraction or Raman; type: physicochemical
Procedure: Nanocrystals within the microemulsions were analysed by placing drops of the microemulsion onto TEM holey carbon grids and placing in a TEM. Nanocrystal images were taken and selected area electron diffraction patterns from the nanocrystals were captured, from which their polymorphic form could be determined.
Crystals/crystal aggregates were typically extracted via filtration. X-ray diffraction and/or FTIR and/or Raman microscopy techniques were used to determine the polymorph(s) of the extracted crystals/crystal aggregates.
A glycine microemulsion was prepared at ambient temperature containing 4.2 g heptane, 2.8 g of a 1:1 mass ratio of Span 80 and Brij 30, and 0.25 g of glycine solution containing 4% by mass of glycine in water. The microemulsion was shaken by hand to ensure homogeneous mixing. To this was added a microemulsion containing 1.8 g heptane, 2.8 g of a 1:1 mass ratio of Span 80 and Brij 30, 1 g of methanol and 0.25 g of water, with subsequent shaking to ensure homogeneous mixing. The resulting supersaturation ratio (c/csat) was 2.3. The resultant microemulsion was left to stand for 3 weeks at 25° C. […]
ROY microemulsions were prepared at ambient temperatures containing 10% by mass of Igepal CA720 in water and 30 μl/g or 60 μl/g of a ROY in toluene solution containing between 8% to 10% by mass of ROY. […] The crystals/crystal aggregates were extracted by filtration. […]

[2] = cited from earlier work
[3] = Supersaturated solutions stabilised due to confinement in microemulsions; visual inspection or optical microscopy on standing; type: physicochemical
Procedure: Glycine microemulsions prepared at ambient temperature containing 4.2 g heptane, 2.8 g of a 1:1 mass ratio of Span 80 and Brij 30, and 0.25 g of glycine solution containing 3-3.5% by mass of glycine in water. The microemulsion was shaken by hand to ensure homogeneous mixing. To this was added a microemulsion containing 1.8 g heptane, 2.8 g of a 1:1 mass ratio of Span 80 and Brij 30, 1 g of methanol and 0.25 g of water, with subsequent shaking to ensure homogeneous mixing. The resulting supersaturation ratio (c/csat) was at 1.7-2.0, i.e. sufficient to cause fast crystallisation of metastable forms in an unconfined system.
Glycine microemulsions prepared at 50° C. containing hexadecane, 15% by mass of a 1:1 mass ratio of Span 20 and Span 80, 1% by mass of ethanol and 1% by mass of a glycine aqueous solution containing 2.5% by mass of glycine. The microemulsion was placed in a water bath at 50° C. and cooled to 26° C. over 24 hours. The resulting supersaturation ratio (c/csat) was at least 4, i.e. sufficient to cause rapid crystallisation in an unconfined system.
ROY microemulsions prepared at ambient temperatures containing 10% by mass of Igepal CA720 in water, 30 μl/g of a toluene solution containing 6% by mass of ROY and 12 μl/g of heptane. The resulting supersaturation ratio (c/csat) was at least 4, i.e. sufficient to cause crystallisation typically within a few hours in an unconfined system.
The mefenamic acid-in-DMF bulk solutions and microemulsions, were prepared at elevated temperature (˜50-60° C.). The microemulsion consisted of 3 g of AOT solution containing 3% by mass of AOT in heptane to which was added 20 μl of a mefenamic acid solution containing 70-75 mg of mefenamic acid per ml DMF. The microemulsion was cooled from 50 to 8° C. over 12 hours and then left at 8° C. The resulting supersaturation ratio (c/csat) was 3.9-4.1, i.e. sufficient to cause crystallisation of metastable form II typically within a few hours in an unconfined system.

resulting supersaturation ratio (c/csat) ([1]; Example 1: 4% by mass glycine solution in heptane/Span 80/Brij 30 microemulsion plus methanol antisolvent microemulsion): 2.3
resulting supersaturation ratio (c/csat) ([3]; 2.5% by mass glycine solution, hexadecane/Span 20/Span 80 microemulsion cooled 50 to 26° C. over 24 hours): at least 4
crystals by visual inspection or optical microscopy on standing ([3]; 2.5% glycine solution, hexadecane/Span 20/Span 80 microemulsion cooled to 26° C., after 1 month): No crystals were observed
resulting supersaturation ratio (c/csat) ([3]; 3-3.5% by mass glycine solution, heptane/Span 80/Brij 30 microemulsion plus methanol microemulsion): 1.7-2.0
crystals by visual inspection or optical microscopy on standing ([3]; microemulsion from 3% by mass glycine in water, after 3 months): No crystals were observed
crystals by visual inspection or optical microscopy on standing ([3]; microemulsion from 3.5% glycine in water, after 3 months): only a few μm sized crystals apparent
Molecule: NCC(=O)O [glycine]
polymorph of extracted crystals (FTIR) ([1]; Example 1: methanol antisolvent microemulsion added, c/csat 2.3, 3 weeks at 25° C.): predominantly of γ-glycine; also recorded: stable γ-polymorph of glycine with virtually no α-polymorph
polymorph of nanocrystals/nanocrystal aggregates (TEM) ([1]; Example 2: hexadecane/Span 20/Span 80 microemulsion, 7% glycine solution, cooled 50 to 25° C. over 24 hours, after 7 days): predominantly of γ-glycine; also recorded: hexagonal γ-polymorph of glycine
polymorph of crystals/crystal aggregates (FTIR) ([1]; Example 3: heptane/Span 80/Brij 30 microemulsion, 4% glycine solution, vapour diffusion of methanol, ambient temperature): predominantly the γ-polymorph of glycine with some α-polymorph
temperatures at which the γ-phase is the most stable ambient pressure form ([2]; ambient pressure): < 165 °C
energy of γ-phase below the α-phase ([2]; ambient temperatures): ~0.0478 kcal/mol
energy of γ-phase below the β-phase ([2]; ambient temperatures): ~0.143 kcal/mol
stability of γ-polymorph over α-polymorph in the bulk phases ([2]; bulk phases): ~0.048 kcal/mol

resulting supersaturation ratio (c/csat) ([1]; Example 4: 80-100 mg mefenamic acid per ml DMF in AOT/heptane microemulsion cooled from 50 to 8° C.): 4.4-5.5
resulting supersaturation ratio (c/csat) ([3]; 70-75 mg mefenamic acid per ml DMF in AOT/heptane microemulsion cooled from 50 to 8° C.): 3.9-4.1
crystals by visual inspection or optical microscopy on standing ([3]; 70-75 mg/ml mefenamic acid in DMF, AOT/heptane microemulsion at 8° C., after 1 month): No crystals were observed
Molecule: Cc1cccc(Nc2ccccc2C(=O)O)c1C [mefenamic acid]
polymorph of crystals (Raman) ([1]; Example 4: DMF-in-heptane/AOT microemulsion cooled from 50 to 8° C. over 12 hours): predominantly of Form I; also recorded: characteristic Form I peaks
polymorph from crystallization in bulk DMF ([2]; irrespective of rate of crystallization or crystallization temperature): only produces the metastable form II

The next lines start with the molecule.

Molecule: Cc1cc(C#N)c(Nc2ccccc2[N+](=O)[O-])s1 [ROY, 5-Methyl-2-[(2-nitrophenyl)amino]-3-thiophenecarbonitrile]
polymorph of crystals/crystal aggregates (FTIR) ([1]; Example 5: Igepal CA720/water microemulsion, 8% to 10% ROY in toluene, dropwise heptane antisolvent, ambient): yellow prism polymorph of ROY
energy of yellow prism form below the orange needle and orange prism forms ([2]; ambient temperatures): ~0.0717 kcal/mol
crystals by visual inspection or optical microscopy on standing ([3]; 6% ROY in toluene, Igepal CA720/water microemulsion with heptane, after 1 month): No crystals were observed
resulting supersaturation ratio (c/csat) ([3]; 6% by mass ROY in toluene, 30 μl/g, Igepal CA720/water microemulsion, 12 μl/g heptane): at least 4

B1: egg white albumin: Albumin is used to exemplify how protein crystallisation can be achieved (protein, UniProt P01012 2-386, looked up)
Ovalbumin: GSIGAASMEFCFDVFKELKVHHANENIFYCPIAIMSALAMVYLGAKDSTRTQINKVVRFDKLPGFGDSIEAQCGTSVNVHSSLRDILNQITKPNDVYSFSLASRLYAEERYPILPEYLQCVKELYRGGLEPINFQTAADQARELINSWVESQTNGIIRNVLQPSSVDSQTAMVLVNAIVFKGLWEKAFKDEDTQAMPFRVTEQESKPVQMMYQIGLFRVASMASEKMKILELPFASGTMSMLVLLPDEVSGLEQLESIINFEKLTEWTSSNVMEERKIKVYLPRMKMEEKYNLTSVLMAMGITDVFSSSANLSGISSAESLKISQAVHAAHAEINEAGREVVGSAEAGVDAASVSEEFRADHPFLFCIKHIATNAVLFFGRCVSP
crystallisation observed by optical microscopy ([1]; Example 6: isooctane/AOT microemulsion, 5 mg albumin per ml water, methanol microemulsion added, after 48 hours): crystals observed
